Data on one compound can be found in ChEMBL document CHEMBL1141489, “A highly efficient route to enantiomerically pure l-N-Bz-Pmp(t-Bu)2-OH and incorporation into a peptide-based protein tyrosine phosphatase inhibitor” (Bioorg Med Chem Lett, 2008).

In test [1] the target is T1, Tyrosine-protein phosphatase non-receptor type 2 (Homo sapiens) (UniProt P17706).
T1 sequence (whole entry): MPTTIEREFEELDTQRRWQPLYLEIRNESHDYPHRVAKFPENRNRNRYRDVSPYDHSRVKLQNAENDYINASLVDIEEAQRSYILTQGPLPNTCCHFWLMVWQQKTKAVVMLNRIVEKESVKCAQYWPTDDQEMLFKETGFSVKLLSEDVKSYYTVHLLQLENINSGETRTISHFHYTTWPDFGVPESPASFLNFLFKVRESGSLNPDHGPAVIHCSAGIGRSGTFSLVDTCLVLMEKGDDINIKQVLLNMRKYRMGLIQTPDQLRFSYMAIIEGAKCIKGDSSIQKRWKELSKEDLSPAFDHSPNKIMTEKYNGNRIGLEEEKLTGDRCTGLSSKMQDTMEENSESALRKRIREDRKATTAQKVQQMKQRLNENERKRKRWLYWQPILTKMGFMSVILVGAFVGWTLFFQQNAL
The test can be described thus: Inhibition of TCPTP upto 120 uM.

For test [2], the target named is T2, Receptor-type tyrosine-protein phosphatase C (Homo sapiens, UniProt P08575).
T2 sequence (P08575 whole entry): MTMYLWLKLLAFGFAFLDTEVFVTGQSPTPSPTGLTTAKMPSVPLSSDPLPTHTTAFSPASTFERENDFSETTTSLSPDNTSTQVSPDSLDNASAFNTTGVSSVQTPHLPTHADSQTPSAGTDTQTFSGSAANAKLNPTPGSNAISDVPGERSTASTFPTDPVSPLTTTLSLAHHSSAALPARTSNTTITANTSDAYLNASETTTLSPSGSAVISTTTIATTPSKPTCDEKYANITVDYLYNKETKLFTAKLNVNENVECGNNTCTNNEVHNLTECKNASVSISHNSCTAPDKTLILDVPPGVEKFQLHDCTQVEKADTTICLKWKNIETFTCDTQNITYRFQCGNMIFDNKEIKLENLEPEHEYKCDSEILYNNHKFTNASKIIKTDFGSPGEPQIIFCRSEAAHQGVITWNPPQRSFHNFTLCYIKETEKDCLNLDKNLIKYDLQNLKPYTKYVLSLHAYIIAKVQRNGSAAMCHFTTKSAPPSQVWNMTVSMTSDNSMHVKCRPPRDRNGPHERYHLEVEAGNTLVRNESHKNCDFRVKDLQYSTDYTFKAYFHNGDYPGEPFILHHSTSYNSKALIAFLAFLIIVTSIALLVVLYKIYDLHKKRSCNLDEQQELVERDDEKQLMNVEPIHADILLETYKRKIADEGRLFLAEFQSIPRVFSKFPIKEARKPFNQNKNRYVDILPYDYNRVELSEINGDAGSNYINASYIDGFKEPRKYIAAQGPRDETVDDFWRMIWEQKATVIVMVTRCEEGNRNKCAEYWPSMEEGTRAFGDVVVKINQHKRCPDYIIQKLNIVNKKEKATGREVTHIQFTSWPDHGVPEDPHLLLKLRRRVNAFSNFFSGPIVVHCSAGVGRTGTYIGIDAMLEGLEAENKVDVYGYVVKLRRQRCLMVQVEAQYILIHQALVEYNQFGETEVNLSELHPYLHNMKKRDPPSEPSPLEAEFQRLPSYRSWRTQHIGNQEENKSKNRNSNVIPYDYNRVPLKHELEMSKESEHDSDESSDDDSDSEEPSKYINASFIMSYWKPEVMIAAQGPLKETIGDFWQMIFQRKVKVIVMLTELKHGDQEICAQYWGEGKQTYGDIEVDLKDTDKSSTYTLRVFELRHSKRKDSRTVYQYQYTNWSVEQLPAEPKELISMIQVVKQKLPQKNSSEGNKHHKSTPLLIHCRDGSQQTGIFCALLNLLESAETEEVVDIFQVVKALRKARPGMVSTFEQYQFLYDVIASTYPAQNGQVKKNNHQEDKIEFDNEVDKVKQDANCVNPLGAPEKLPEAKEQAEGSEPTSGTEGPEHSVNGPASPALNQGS
Kind of test: Inhibition of CD45.

Activity calls are given as the source filed them. The calls are words filed in the database; no cut-off is given here. Square brackets hold non-standard residues; d marks the D form. Peptide text beside a SMILES is read from it. Pmp = N[C@@H](Cc1ccc(CP(=O)(O)O)cc1)C(=O)O

Take `CC(=O)N[C@H](C(=O)N[C@@H](CCC(=O)O)C(=O)NCC(=O)N[C@@H](CCC(N)=O)C(=O)N[C@@H](Cc1ccc(CP(=O)(O)O)cc1)C(=O)N[C@@H](CCC(N)=O)C(=O)N1CCC[C@H]1C(=O)N[C@@H](CCC(N)=O)C(=O)N1CCC[C@H]1C(N)=O)[C@@H](C)O` (Ac-TEGQ[Pmp]QPQP-NH2): the outcome in test [1] was inactive. The IC50 in test [2] was found to be 100 µM.
